Tested on: 648629-189-R-J1-PDC spheroids with HUVEC/MSC, viability
Assay: Anticancer human tumor 648629-189-R-J1-PDC patient-derived bladder carcinoma cell line growth inhibition [PI3K]
Conditions: for IC50: curve of first compound; for viability, T/C: stronger effect = lower value
Description: Combinatorial screen of targeted agents with the PI3K inhibitors inavolisib, alpelisib, duvelisib, and copanlisib in multi-cell type tumor spheroids
A high-throughput screen of multi-cell type tumor spheroids was designed to identify active combinations of targeted small molecules and PI3K pathway inhibitors. Complex spheroids include a stromal component modeled by human endothelial cells (HUVEC) and fibroblasts modeled by human mesenchymal stem cells (MSCs). The concentration ranges selected for each drug and investigational agent were based upon clinically achievable concentrations if the clinical Cmax of the agent was known.
Compounds. The drugs and investigational agents: inavolisib (NSC800729), alpelisib (NSC765974), duvelisib (NSC772469), copanlisib (NSC816437), ipatasertib (NSC767898), afuresertib (NSC778305), talazoparib (NSC767125), sapanisertib (NSC764658), selumetinib (NSC741078), tovorafenib (DAY101, NSC766906), vemurafenib (NSC761431), ravoxertinib (NSC781343), sotorasib (NSC818433), MRTX1133 (NSC 836407), abemaciclib (NSC 768073), palbociclib (NSC758247), venetoclax (NSC 766270), SY5609 (NSC837396), enzalutamide (NSC755605), and darolutamide (NSC825331), were obtained from the National Cancer Institute (NCI) Developmental Therapeutics Program Chemical Repository. The FDA-approved anticancer drug set is available from the NCI Developmental Therapeutics Program. […] The stock solutions were prepared in dimethyl sulfoxide (DMSO, Sigma-Aldrich, St. Louis, MO, cat. D2650) at 800-fold the tested concentration and stored at -70 degrees C prior to their use. All drugs and investigational agents were tested over a range starting from a high concentration at or near the clinical Cmax and decreasing in half-log increments. If the clinical Cmax for an agent had not been determined, the highest concentration tested was 10 microM.
Cell Culture. All cells were maintained in an incubator at 37 degrees C and 5% CO2 with 95% humidity. The PDC lines were cultured according to standard operating procedures established by the NCI PDMR (https://pdmr.cancer.gov/sops/default.htm). All PDCs were thawed and cultured in Matrigel-coated flasks prepared with a working solution of 1X Ham's F-12 nutrient mix, without supplementation (Invitrogen, Waltham, MA, cat. 11765054), 100 U/mL penicillin-streptomycin (Invitrogen, cat. 15140122), and 2.5% Matrigel (Corning Inc., Corning, NY, cat. 354248) for the first three passages. The 354836-022-R-J1-PDC, 475296-252-R-J1-PDC, and 997726-040-R-J2-PDC lines were cultured in 6A media, which includes advanced DMEM/F-12 (Thermo Fisher Scientific, cat. 12634028), 10 mM HEPES (Thermo Fisher Scientific, cat. 15630080), 1X GlutaMAX supplement (Thermo Fisher Scientific, cat. 35050061), 0.1 mg/mL primocin (InvivoGen, San Diego, CA, cat. ant-pm-2), 10% defined fetal bovine serum, heat inactivated (HyClone Laboratories Inc., Logan, UT, cat. SH30070.03HI), 50% L-WRN conditioned media (ATCC, cat. CRL-3276), 1.25 mM N-Acetyl-L-cysteine (Sigma-Aldrich, cat. A9165), 10 mM nicotinamide (Sigma-Aldrich, cat. N0636), 1X B-27 supplement (Thermo Fisher Scientific, cat. 17504044), 1X N-2 supplement (Thermo Fisher Scientific, cat. 17502048), and 10 microM Y-27632 dihydrochloride (Tocris Bioscience, Bristol, United Kingdom, cat. 1254). The 624824-186-R-J2-PDC line was cultured in 6C/Colon 1B media, which includes all 6A media components plus 50 ng/mL human EGF recombinant protein (Thermo Fisher Scientific, cat. PHG0311). […]

[1] = second compound 0.00316 µM, first compound 0.0316 µM
[2] = second compound 0.00316 µM, first compound 0.1 µM
[3] = second compound 0.00316 µM, first compound 0.316 µM
[4] = second compound 0.00316 µM, first compound 1 µM
[5] = second compound 0.00316 µM, first compound 3.16 µM
[6] = second compound 0.00316 µM, first compound 10 µM
[7] = second compound 0.01 µM, first compound 0.0316 µM
[8] = second compound 0.01 µM, first compound 0.1 µM
[9] = second compound 0.01 µM, first compound 0.316 µM
[10] = second compound 0.01 µM, first compound 1 µM
[11] = second compound 0.01 µM, first compound 3.16 µM
[12] = second compound 0.01 µM, first compound 10 µM
[13] = second compound 0.0316 µM, first compound 0.0316 µM
[14] = second compound 0.0316 µM, first compound 0.1 µM
[15] = second compound 0.0316 µM, first compound 0.316 µM
[16] = second compound 0.0316 µM, first compound 1 µM
[17] = second compound 0.0316 µM, first compound 3.16 µM
[18] = second compound 0.0316 µM, first compound 10 µM
[19] = second compound 0.1 µM, first compound 0.0316 µM
[20] = second compound 0.1 µM, first compound 0.1 µM
[21] = second compound 0.1 µM, first compound 0.316 µM
[22] = second compound 0.1 µM, first compound 1 µM
[23] = second compound 0.1 µM, first compound 3.16 µM
[24] = second compound 0.1 µM, first compound 10 µM
[25] = second compound 0.316 µM, first compound 0.0316 µM
[26] = second compound 0.316 µM, first compound 0.1 µM
[27] = second compound 0.316 µM, first compound 0.316 µM
[28] = second compound 0.316 µM, first compound 1 µM
[29] = second compound 0.316 µM, first compound 3.16 µM
[30] = second compound 0.316 µM, first compound 10 µM
[31] = second compound 1 µM, first compound 0.0316 µM
[32] = second compound 1 µM, first compound 0.1 µM
[33] = second compound 1 µM, first compound 0.316 µM
[34] = second compound 1 µM, first compound 1 µM
[35] = second compound 1 µM, first compound 3.16 µM
[36] = second compound 1 µM, first compound 10 µM
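Further: spheroids exposed to agents for seven days before reading.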
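Wherever viability, T/C is given: percent of vehicle control luminescence where 100% = DMSO treated spheroids.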

## CC1(C)CCC(CN2CCN(c3ccc(C(=O)NS(=O)(=O)c4ccc(NCC5CCOCC5)c([N+](=O)[O-])c4)c(Oc4cnc5[nH]ccc5c4)c3)CC2)=C(c2ccc(Cl)cc2)C1 + CC(Nc1ccc2c(c1)OCCn1cc(N3C(=O)OCC3C(F)F)nc1-2)C(N)=O
Second compound 0.00316 µM
  IC50: 4.77 µM
Second compound 0.01 µM
  IC50: 4.84 µM
Second compound 0.0316 µM
  IC50: 4.55 µM
Second compound 0.1 µM
  IC50: 5.28 µM
Second compound 0.316 µM
  IC50: 4.45 µM
Second compound 1 µM
  IC50: 4.34 µM
[1]
  viability, T/C: 101%
[2]
  viability, T/C: 90.9%
[3]
  viability, T/C: 92.9%
[4]
  viability, T/C: 80.7%
[5]
  viability, T/C: 76.7%
[6]
  viability, T/C: 8.54%
[7]
  viability, T/C: 122%
[8]
  viability, T/C: 88.3%
[9]
  viability, T/C: 106%
[10]
  viability, T/C: 86%
[11]
  viability, T/C: 80.7%
[12]
  viability, T/C: 7.49%
[13]
  viability, T/C: 110%
[14]
  viability, T/C: 102%
[15]
  viability, T/C: 98.2%
[16]
  viability, T/C: 89.5%
[17]
  viability, T/C: 71.3%
[18]
  viability, T/C: 9.16%
[19]
  viability, T/C: 84.5%
[20]
  viability, T/C: 99.8%
[21]
  viability, T/C: 90.5%
[22]
  viability, T/C: 95.6%
[23]
  viability, T/C: 83.8%
[24]
  viability, T/C: 7.86%
[25]
  viability, T/C: 74.7%
[26]
  viability, T/C: 76%
[27]
  viability, T/C: 79.4%
[28]
  viability, T/C: 77.6%
[29]
  viability, T/C: 67.5%
[30]
  viability, T/C: 7.9%
[31]
  viability, T/C: 74.2%
[32]
  viability, T/C: 63.4%
[33]
  viability, T/C: 62.5%
[34]
  viability, T/C: 67.3%
[35]
  viability, T/C: 65.7%
[36]
  viability, T/C: 8.61%

## C[C@@H](NC(=O)c1ncnc(N)c1Cl)c1ncc(C(=O)Nc2cc(C(F)(F)F)c(Cl)cn2)s1 + CC(Nc1ccc2c(c1)OCCn1cc(N3C(=O)OCC3C(F)F)nc1-2)C(N)=O
Second compound 0.00316 µM
  IC50: > 10 µM
Second compound 0.01 µM
  IC50: > 10 µM
Second compound 0.0316 µM
  IC50: > 10 µM
Second compound 0.1 µM
  IC50: > 10 µM
Second compound 0.316 µM
  IC50: > 10 µM
Second compound 1 µM
  IC50: > 10 µM
[1]
  viability, T/C: 106%
[2]
  viability, T/C: 99.1%
[3]
  viability, T/C: 112%
[4]
  viability, T/C: 115%
[5]
  viability, T/C: 108%
[6]
  viability, T/C: 116%
[7]
  viability, T/C: 111%
[8]
  viability, T/C: 98.8%
[9]
  viability, T/C: 115%
[10]
  viability, T/C: 99.3%
[11]
  viability, T/C: 112%
[12]
  viability, T/C: 101%
[13]
  viability, T/C: 109%
[14]
  viability, T/C: 105%
[15]
  viability, T/C: 97.4%
[16]
  viability, T/C: 102%
[17]
  viability, T/C: 106%
[18]
  viability, T/C: 106%
[19]
  viability, T/C: 103%
[20]
  viability, T/C: 97.8%
[21]
  viability, T/C: 105%
[22]
  viability, T/C: 110%
[23]
  viability, T/C: 98.3%
[24]
  viability, T/C: 97.8%
[25]
  viability, T/C: 94.8%
[26]
  viability, T/C: 93.9%
[27]
  viability, T/C: 83.7%
[28]
  viability, T/C: 86.2%
[29]
  viability, T/C: 96.2%
[30]
  viability, T/C: 86.4%
[31]
  viability, T/C: 76.2%
[32]
  viability, T/C: 74.2%
[33]
  viability, T/C: 69.3%
[34]
  viability, T/C: 77.2%
[35]
  viability, T/C: 78%
[36]
  viability, T/C: 65.5%

— PubChem BioAssay AID1963974 (Molecular Pharmacology Branch, DTP, NCI, 2024)
